“And” between values parts separate entries of the source, which are not always exact repeats. Identical values can stand only once.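 48-hour exposure; five concentrations; linearly interpolated endpoints. Here, GI50 denotes the concentration required for 50% inhibition of growth. TGI denotes the concentration required for complete inhibition of growth.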
Columns and labels:
Assay in all cases: inhibition of tumour cell growth, NCI panel, 48 h
[1] = tested on: A498 renal
[2] = tested on: DU-145 prostate
[3] = tested on: SF-295 CNS
[4] = tested on: UO-31 renal
[5] = tested on: HS 578T breast
[6] = tested on: ACHN renal
[7] = tested on: HOP-62 NSCLC
[8] = tested on: KM12 colon
[9] = tested on: EKVX NSCLC
[10] = tested on: HCT-15 colon
[11] = tested on: OVCAR-3 ovarian
[12] = tested on: SF-268 CNS
[13] = tested on: MDA-MB-435
[14] = tested on: SK-OV-3 ovarian
[15] = tested on: SK-MEL-5 melanoma
[16] = tested on: CCRF-CEM leukemia
[17] = tested on: NCI/ADR-RES ovarian
[18] = tested on: A549 NSCLC
[19] = tested on: NCI-H226 lung
[20] = tested on: OVCAR-5 ovarian
[21] = tested on: SNB-75 CNS
[22] = tested on: OVCAR-4 ovarian
[23] = tested on: U251 CNS
[24] = tested on: SNB-19 CNS
[25] = tested on: NCI-H23 lung
[26] = tested on: MCF7 breast
[27] = tested on: HCC-2998 colon
[28] = tested on: RPMI-8226 leukemia
[29] = tested on: RXF 393 renal
[30] = tested on: 786-0 renal
[31] = tested on: K-562 leukemia
[32] = tested on: MALME-3M melanoma
[33] = tested on: LOX IMVI melanoma
[34] = tested on: NCI-H460 lung
[35] = tested on: SK-MEL-2 melanoma
[36] = tested on: SN12C renal
[37] = tested on: SF-539 CNS
[38] = tested on: COLO 205 colon
[39] = tested on: PC-3 prostate
[40] = tested on: SW-620 colon
[41] = tested on: HOP-92 NSCLC
[42] = tested on: SR leukemia
[43] = tested on: UACC-62 melanoma
[44] = tested on: M14 melanoma
[45] = tested on: NCI-H522 lung
[46] = tested on: HCT-116 colon
[47] = tested on: OVCAR-8 ovarian
[48] = tested on: SK-MEL-28 melanoma
[49] = tested on: IGROV1 ovarian
[50] = tested on: CAKI-1 renal
[51] = tested on: HT29 colon
[52] = tested on: MOLT-4 leukemia
[53] = tested on: BT-549 breast
[54] = tested on: TK-10 renal
[55] = tested on: UACC-257 melanoma
[56] = tested on: MDA-MB-231 breast
[57] = tested on: HL-60(TB) leukemia

With `COC(=O)c1ccc2c(c1)n(Cc1ccc3ccccc3c1)c[n+]2Cc1ccc2ccccc2c1` the GI50 [1] was 2.23 µM, the TGI [1] was 6.49 µM and the GI50 [2] was 1.77 µM. For the same compound, the TGI [2] was 3.52 µM, the GI50 [3] was 1.86 µM and the TGI [3] was 5.56 µM. For the same compound, the GI50 [4] was 13 µM, the TGI [4] was 63.9 µM and the GI50 [5] was 1.76 µM. For the same compound, the TGI [5] was 4.65 µM, the GI50 [6] was 10.2 µM and the TGI [6] was 29.8 µM. The GI50 [7] was 1.8 µM, the TGI [7] was 4.28 µM and the GI50 [8] was 1.37 µM. The TGI [8] was 2.83 µM, the GI50 [9] was 3.01 µM and the TGI [9] was 20.4 µM. The GI50 [10] was 4.48 µM, the TGI [10] was 26.8 µM and the GI50 [11] was 1.37 µM. The TGI [11] was 2.78 µM, the GI50 [12] was 1.5 µM and the TGI [12] was 3.02 µM. For the same compound, the GI50 [13] was 1.33 µM, the TGI [13] was 2.75 µM and the GI50 [14] was 2.82 µM. For the same compound, the TGI [14] was 13.4 µM, the GI50 [15] was 1.46 µM and the TGI [15] was 2.78 µM. For the same compound, the GI50 [16] was 1.79 µM, the TGI [16] was 4.46 µM and the GI50 [17] was 24 µM. The TGI [17] was over 100 µM, the GI50 [18] was 11.3 µM and the TGI [18] was 36.8 µM. For the same compound, the GI50 [19] was 1.96 µM, the TGI [19] was 4.44 µM and the GI50 [20] was 2.12 µM. The TGI [20] was 13.7 µM.

Compound `COC(=O)CCC(=O)NC1c2cccc3cccc(c23)Cn2c(=O)n(C)c(=O)n21` (stereo not drawn) has a TGI [21] of over 100 µM, a TGI [22] of over 100 µM and a TGI [23] of over 100 µM. For the same compound, the TGI [24] was over 100 µM, the TGI [2] was over 100 µM and the TGI [25] was over 100 µM. For the same compound, the TGI [26] was over 100 µM, the TGI [27] was over 100 µM and the TGI [28] was over 100 µM. The TGI [29] was over 100 µM, the TGI [3] was over 100 µM and the TGI [4] was over 100 µM. The TGI [30] was over 100 µM, the TGI [31] was over 100 µM and the TGI [32] was over 100 µM. For the same compound, the TGI [33] was over 100 µM, the TGI [5] was over 100 µM and the TGI [34] was over 100 µM. The TGI [35] was over 100 µM, the TGI [36] was over 100 µM and the TGI [37] was over 100 µM. It also gave a TGI [38] of over 100 µM, a TGI [6] of over 100 µM and a TGI [7] of over 100 µM. The TGI [8] was over 100 µM, the TGI [9] was over 100 µM and the TGI [39] was over 100 µM. For the same compound, the TGI [10] was over 100 µM, the TGI [40] was over 100 µM and the TGI [11] was over 100 µM. It also gave a TGI [41] of over 100 µM, a TGI [42] of over 100 µM and a TGI [43] of over 100 µM. For the same compound, the TGI [12] was over 100 µM, the TGI [44] was over 100 µM and the TGI [45] was over 100 µM. The TGI [13] was over 100 µM, the TGI [46] was over 100 µM and the TGI [47] was over 100 µM. It also gave a TGI [48] of over 100 µM, a TGI [49] of over 100 µM and a TGI [50] of over 100 µM. It also gave a TGI [51] of over 100 µM, a TGI [52] of over 100 µM and a TGI [14] of over 100 µM. It also gave a TGI [53] of over 100 µM, a TGI [15] of over 100 µM and a TGI [16] of over 100 µM. For the same compound, the TGI [54] was over 100 µM, the TGI [17] was over 100 µM and the TGI [55] was over 100 µM. It also gave a TGI [18] of over 100 µM, a TGI [56] of over 100 µM and a TGI [20] of over 100 µM.

For `CC(=O)OCC1OC(n2c(-c3ccccc3)cc(-c3ccccc3)c(C#N)c2=O)C(OC(C)=O)C(OC(C)=O)C1OC(C)=O` (stereo not drawn), the GI50 [21] was 22 µM and 98.5 µM, the TGI [21] was over 100 µM and the GI50 [28] was 16 µM and 39.7 µM. It also gave a TGI [28] of over 100 µM and a TGI [29] of over 100 µM.

Compound `CC(=O)OC[C@]12CC[C@H]3[C@@H](C[C@H]4O[C@]45CC=CC(=O)[C@]35C)[C@]1(O)CC[C@@]2(O)[C@@](C)(O)C1CC(C)=C(C)C(=O)O1` (stereo partly drawn) has a TGI [22] of over 34.9 µM, a TGI [24] of over 35.4 µM and a TGI [2] of over 32.8 µM. It also gave a TGI [26] of over 25.3 µM, a GI50 [28] of over 100 µM and a TGI [28] of over 100 µM. The TGI [3] was over 32.5 µM, the TGI [4] was over 25 µM and the TGI [31] was over 100 µM. It also gave a TGI [36] of over 32 µM, a TGI [9] of over 30.4 µM and a TGI [39] of over 26.1 µM. It also gave a TGI [10] of over 33.6 µM, a TGI [42] of over 38 µM and a TGI [47] of over 32.1 µM. The TGI [52] was over 36.2 µM, the TGI [14] was over 23.7 µM and the GI50 [17] was over 23.6 µM. For the same compound, the TGI [17] was over 100 µM, the TGI [55] was over 32.8 µM and the TGI [56] was over 23.6 µM. It also gave a TGI [19] of over 20 µM and a TGI [20] of over 20.1 µM.

For `COc1cc(-c2c(C#N)c(N)n3c(nc4ccccc43)c2C#N)cc(Br)c1OC`, the GI50 [21] was 2.18 µM, the TGI [21] was 9.98 µM and the GI50 [1] was over 100 µM. For the same compound, the TGI [1] was over 100 µM, the GI50 [23] was 4.47 µM and the TGI [23] was over 100 µM. It also gave a GI50 [24] of over 100 µM, a TGI [24] of over 100 µM and a GI50 [27] of over 100 µM. It also gave a TGI [27] of over 100 µM, a GI50 [28] of 6.83 µM and a TGI [28] of over 100 µM. For the same compound, the GI50 [29] was 4.37 µM, the TGI [29] was over 100 µM and the GI50 [3] was over 100 µM. For the same compound, the TGI [3] was over 100 µM, the GI50 [4] was 4.13 µM and the TGI [4] was over 100 µM. It also gave a GI50 [30] of 6.24 µM, a TGI [30] of over 100 µM and a GI50 [31] of over 100 µM. For the same compound, the TGI [31] was over 100 µM, the GI50 [33] was over 100 µM and the TGI [33] was over 100 µM. It also gave a GI50 [5] of 2.71 µM, a TGI [5] of over 100 µM and a GI50 [35] of 47.5 µM. For the same compound, the TGI [35] was over 100 µM, the GI50 [37] was over 100 µM and the TGI [37] was over 100 µM. It also gave a GI50 [57] of over 100 µM, a TGI [57] of over 100 µM and a GI50 [38] of over 100 µM. For the same compound, the TGI [38] was over 100 µM, the GI50 [6] was over 100 µM and the TGI [6] was over 100 µM. For the same compound, the GI50 [7] was over 100 µM, the TGI [7] was over 100 µM and the GI50 [39] was 4.4 µM. The TGI [39] was over 100 µM, the GI50 [10] was over 100 µM and the TGI [10] was over 100 µM. It also gave a GI50 [43] of 28.3 µM, a TGI [43] of over 100 µM and a GI50 [12] of 77.5 µM. The TGI [12] was over 100 µM, the GI50 [44] was over 100 µM and the TGI [44] was over 100 µM. For the same compound, the GI50 [45] was 79.7 µM, the TGI [45] was over 100 µM and the GI50 [13] was over 100 µM. It also gave a TGI [13] of over 100 µM, a GI50 [46] of 4.77 µM and a TGI [46] of over 100 µM. The GI50 [48] was over 100 µM, the TGI [48] was over 100 µM and the GI50 [49] was 97.5 µM. It also gave a TGI [49] of over 100 µM, a GI50 [52] of over 100 µM and a TGI [52] of over 100 µM. For the same compound, the GI50 [14] was over 100 µM, the TGI [14] was over 100 µM and the GI50 [53] was over 100 µM. For the same compound, the TGI [53] was over 100 µM, the GI50 [15] was 3.3 µM and the TGI [15] was over 100 µM. For the same compound, the GI50 [17] was over 100 µM, the TGI [17] was over 100 µM and the GI50 [55] was over 100 µM. It also gave a TGI [55] of over 100 µM, a GI50 [56] of 2.46 µM and a TGI [56] of over 100 µM. The GI50 [19] was over 100 µM, the TGI [19] was over 100 µM and the GI50 [20] was over 100 µM. It also gave a TGI [20] of over 100 µM.
